From patent publication EP3070175A1, “TEST FOR DETERMINING SUSCEPTIBILITY OR RESISTANCE TO POLYMYXINS IN ENTEROBACTERIACEAE” (Université de Fribourg, priority 2015, dated 2016)

Columns and labels:
P. mirabilis = experiment: MIC determination, broth microdilution in Cation-Adjusted Mueller-Hinton broth (CLSI); assay type: cell-based, Proteus mirabilis; conditions: strain Pmir
Protocol: (§1) Determination of MIC values were performed using the reference technique (broth microdilution in Cation-Adjusted Mueller-Hinton broth) according to the CLSI guidelines. Polymyxin B and colistin (Sigma-Aldrich, Saint-Louis) were tested over a range dilution from 0.12 to 128 µg/ml and 5.10^5 CFU/ml of bacteria in each well was used. Following the EUCAST breakpoints (http://www.eucast.org/), strains with a colistin MICs of ≤ 2 µg/ml were categorized as susceptible, although those with MICs of > 2 µg/ml were resistant.
(§2) All experiments were repeated in triplicate.

C. freundii = experiment: as above; assay type: cell-based; conditions: for Colistin resistance: EUCAST breakpoints
Protocol: as §1, §2

E. aerogenes = experiment: as above; assay type: cell-based; conditions: strain 6 FR
Protocol: as §1, §2

E. cloacae = experiment: as above; assay type: cell-based; conditions: for Colistin resistance: EUCAST breakpoints
Protocol: as §1, §2

H. alvei = experiment: as above; assay type: cell-based; conditions: strain ER
Protocol: as §1, §2

K. oxytoca = experiment: as above; assay type: cell-based; conditions: strain C24
Protocol: as §1, §2

M. morganii = experiment: as above; assay type: cell-based; conditions: strain Mmor
Protocol: as §1, §2

P. stuartii = experiment: as above; assay type: cell-based; conditions: strain Pstu
Protocol: as §1, §2

S. marcescens [1] = experiment: as above; assay type: cell-based, Serratia marcescens; conditions: strain Smar
Protocol: as §1, §2

E. coli [2] = experiment: as above; assay type: cell-based, Escherichia coli; conditions: for Colistin resistance: EUCAST breakpoints
Protocol: as §1, §2

S. marcescens [3] = experiment: Polymyxin test: colorimetric detection of growth (glucose metabolization, phenol red) in presence of colistin sulphate; assay type: cell-based, Serratia marcescens; set-up: key: +, yellow; -, orange; conditions: strain Smar; colistin sulphate 3.75 mg/L final; visual colour change, up to 4 h at 37°C
Protocol: (§3) Each inoculum was prepared by mixing 1 öse (10 µl) of a fresh culture of the tested bacteria in 5 ml of sterile NaCl 0.85% (at a density of 3 Mac Farland, i.e. about 10^9 CFU/ml).
(§4) 250 ml of reactive medium was prepared by mixing the compounds hereafter: • a broth powder of a non selective growth medium for bacteria, the Cation-Adjusted Mueller-Hinton broth (MHB-CA) : 6.25 g • a colour indicator, the phenol red : 0.0125 g • sterile distilled water 225 ml • sterile D (+)-glucose (10 %) anhydrous (sterilization by filtration) : 25 ml
(§5) The pH of the final reactive medium was adjusted to 6.6 and 6.7 with HCl 1M.
(§6) Colistin or polymyxin B was added or not at the concentration of 5 mg/L in the reactive medium. Standard colistin sulphate and polymyxin B were from Sigma Aldrich (Saint-Louis, France). Those antibiotic molecule powders were kept at 4°C before their use, whereas polymyxin dilutions were kept at -20°C.
(§7) For each strain, two wells of a plastic sterile plate with 96 shaped wells were inoculated in parallel with and without polymyxin (colistin sulphate or polymyxin B) in order to compare their colour change.
Plastic sterile plates were from Sarstedt (Nümbrecht, Germany). The tray may be prepared as follows : • 1. […]
The results of the tests were recorded at 10 min (checking for no spontaneous colour change in the well) and then every hour for a maximum of 4 hours by visual inspection. […]

E. coli [4] = experiment: as above; assay type: cell-based, Escherichia coli; set-up: key: +, yellow; -, orange; conditions: colistin sulphate 3.75 mg/L final, visual colour change, up to 4 h at 37°C
Protocol: as §3, §4, §5, §6, §7
Plastic sterile plates were from Sarstedt (Nümbrecht, Germany). The tray may be prepared as follows : • 1. 150 µl of reactive medium colistin free (obtained in 1.) in the first line • 2. 150 µl of reactive medium with 5 mg/l of colistin sulphate in the second line (final concentration = 3.75 mg/l) • 3. 50 µl of NaCl alone in the first column (one well colistin-free and one well with colistin sulphate) (medium control) • 4. 50 µl of the bacterial suspension (obtained in 2.) for the control strains and for every strain in the other column (one well colistin-free and one well with colistin)
After mixing of the bacterial suspension to the reactive medium by pipetting up and down, the final concentration of bacteria was 2.5.10^8 CFU/ml in each well and the final selective concentration of colistin or polymyxin B in the well with polymyxin was 3.75 mg/L.
The results of the tests were recorded at 10 min (checking for no spontaneous colour change in the well) and then every hour for a maximum of 4 hours by visual inspection. No colour change of the well with colistin sulphate or polymyxin B indicated susceptibility to colistin sulphate or polymyxin B and negativity of those tests. On the contrary, a colour change (orange to yellow) indicates the positivity of the test meaning growth capability (related to glucose metabolism) in presence of colistin sulphate or polymyxin B, i.e. resistance to colistin sulphate or polymyxin B.
as §2

## colistin sulphate
P. mirabilis; EUCAST breakpoints
  Colistin resistance: + (those with MICs of > 2 µg/ml were resistant)
P. mirabilis; Natural resistance
  Colistin MIC: >128 mg/L
C. freundii; strain 8 FR
  Colistin MIC: 0.12 mg/L
  Colistin resistance: - (strains with a colistin MICs of ≤ 2 µg/ml were categorized as susceptible)
C. freundii; strain C136
  Colistin MIC: 0.12 mg/L
  Colistin resistance: - (strains with a colistin MICs of ≤ 2 µg/ml were categorized as susceptible)
E. aerogenes
  Colistin MIC: 0.12 mg/L
E. aerogenes; EUCAST breakpoints
  Colistin resistance: - (strains with a colistin MICs of ≤ 2 µg/ml were categorized as susceptible)
E. cloacae; strain 7 FR
  Colistin MIC: 0.12 mg/L
  Colistin resistance: - (strains with a colistin MICs of ≤ 2 µg/ml were categorized as susceptible)
E. cloacae; strain C28
  Colistin resistance: + (those with MICs of > 2 µg/ml were resistant)
E. cloacae; strain C28, resistance mechanism Unknown
  Colistin MIC: 32 mg/L
E. cloacae; strain C129
  Colistin MIC: 0.25 mg/L
  Colistin resistance: - (strains with a colistin MICs of ≤ 2 µg/ml were categorized as susceptible)
E. cloacae; strain C144
  Colistin MIC: 0.25 mg/L
  Colistin resistance: - (strains with a colistin MICs of ≤ 2 µg/ml were categorized as susceptible)
E. cloacae; strain HM
  Colistin resistance: + (those with MICs of > 2 µg/ml were resistant)
E. cloacae; strain HM, resistance mechanism Unknown
  Colistin MIC: >128 mg/L
H. alvei; EUCAST breakpoints
  Colistin resistance: + (those with MICs of > 2 µg/ml were resistant)
H. alvei; resistance mechanism Unknown
  Colistin MIC: 16 mg/L
K. oxytoca; EUCAST breakpoints
  Colistin resistance: + (those with MICs of > 2 µg/ml were resistant)
K. oxytoca; mgrB promotor truncated with ISKpn26-like
  Colistin MIC: 64 mg/L
M. morganii; EUCAST breakpoints
  Colistin resistance: + (those with MICs of > 2 µg/ml were resistant)
M. morganii; Natural resistance
  Colistin MIC: >128 mg/L
P. stuartii; EUCAST breakpoints
  Colistin resistance: + (those with MICs of > 2 µg/ml were resistant)
P. stuartii; Natural resistance
  Colistin MIC: >128 mg/L
S. marcescens [1]; EUCAST breakpoints
  Colistin resistance: + (those with MICs of > 2 µg/ml were resistant)
S. marcescens [1]; Natural resistance
  Colistin MIC: >128 mg/L
E. coli [2]; strain 3 FR
  Colistin MIC: 0.12 mg/L
  Colistin resistance: - (strains with a colistin MICs of ≤ 2 µg/ml were categorized as susceptible)
E. coli [2]; strain 5 FR
  Colistin MIC: 0.25 mg/L
  Colistin resistance: - (strains with a colistin MICs of ≤ 2 µg/ml were categorized as susceptible)
E. coli [2]; strain 10 FR
  Colistin MIC: 0.25 mg/L
  Colistin resistance: - (strains with a colistin MICs of ≤ 2 µg/ml were categorized as susceptible)
E. coli [2]; strain 27563
  Colistin resistance: + (those with MICs of > 2 µg/ml were resistant)
E. coli [2]; strain 27563, resistance mechanism Unknown
  Colistin MIC: 16 mg/L
E. coli [2]; strain 27837
  Colistin resistance: + (those with MICs of > 2 µg/ml were resistant)
E. coli [2]; strain 27837, resistance mechanism Unknown
  Colistin MIC: 16 mg/L
E. coli [2]; strain 27850
  Colistin resistance: + (those with MICs of > 2 µg/ml were resistant)
E. coli [2]; strain 27850, resistance mechanism Unknown
  Colistin MIC: 16 mg/L
E. coli [2]; strain 27852
  Colistin resistance: + (those with MICs of > 2 µg/ml were resistant)
E. coli [2]; strain 27852, resistance mechanism Unknown
  Colistin MIC: 8 mg/L
E. coli [2]; strain 30742
  Colistin resistance: + (those with MICs of > 2 µg/ml were resistant)
E. coli [2]; strain 30742, resistance mechanism Unknown
  Colistin MIC: 8 mg/L
E. coli [2]; strain ATCC 25922
  Colistin MIC: 0.25 mg/L
  Colistin resistance: - (strains with a colistin MICs of ≤ 2 µg/ml were categorized as susceptible)
E. coli [2]; strain C140
  Colistin MIC: 0.12 mg/L
  Colistin resistance: - (strains with a colistin MICs of ≤ 2 µg/ml were categorized as susceptible)
E. coli [2]; strain Top10
  Colistin MIC: 0.12 mg/L
  Colistin resistance: - (strains with a colistin MICs of ≤ 2 µg/ml were categorized as susceptible)
S. marcescens [3]
  Results of the method of the invention: +
E. coli [4]; strain 3 FR
  Results of the method of the invention: -
E. coli [4]; strain 5 FR
  Results of the method of the invention: -
E. coli [4]; strain 10 FR
  Results of the method of the invention: -
E. coli [4]; strain 27563
  Results of the method of the invention: +
E. coli [4]; strain 27837
  Results of the method of the invention: +
E. coli [4]; strain 27850
  Results of the method of the invention: +
E. coli [4]; strain 27852
  Results of the method of the invention: +
E. coli [4]; strain 30742
  Results of the method of the invention: +
E. coli [4]; strain ATCC 25922
  Results of the method of the invention: -
E. coli [4]; strain C140
  Results of the method of the invention: -
E. coli [4]; strain Top10
  Results of the method of the invention: -
